Experimental data taken from patent publication EP4653437A2 (Innovo Therapeutics Inc., priority 2023, dated 2024).

Columns and labels:
[1] = molecular target: T1, human 15-PGDH (Homo sapiens, UniProt P15428); assay: Evaluation of 15-PGDH inhibitory activity (fluorescence enzyme assay, NAD+/PGE2); format: biochemical; details: human 15-PGDH enzyme, fluorescence Vmax
T1 construct: purchased R&D System 5660-DH
T1 sequence (P15428 1-266): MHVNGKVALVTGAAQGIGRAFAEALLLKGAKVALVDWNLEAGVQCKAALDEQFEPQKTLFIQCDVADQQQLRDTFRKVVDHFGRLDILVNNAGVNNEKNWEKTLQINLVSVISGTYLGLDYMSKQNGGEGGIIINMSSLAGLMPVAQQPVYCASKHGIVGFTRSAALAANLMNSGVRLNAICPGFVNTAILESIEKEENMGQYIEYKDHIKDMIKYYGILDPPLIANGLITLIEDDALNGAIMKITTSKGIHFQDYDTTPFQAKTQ
Description: 15-PGDH inhibition activity of Example compounds was measured as follows. 6.7 ng of human 15-PGDH (R&D System# 5660-DH) enzyme (10 µL) was added to a black 96 well plate, 60 µL of buffer (50 mM Tris-HCl, pH 7.5, 0.01% Tween 20) was added, and 10 µL of 200 µM β-Nicotinamide adenine dinucleotide sodium salt (Sigma, Cat# N0632-5G) was added. 10 µL of (10x) compound solution in DMSO was added and reacted for 10 minutes at room temperature.

[2] = test system: A549 cells; assay: Measurement of PGE2-increasing activity in A549 cells (IL-1β stimulated, PGE2 quantified in supernatant); format: cell-based; details: Homo sapiens, 24 h; concentration of 1 µM of each compound; IL-1β treated A549 cells; read-out: Increased PGE2 production in A549 cells
Summary of the method: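 PGE2 secreted into the supernatant was measured by immunoassay 24 h after treatment. Before treatment, A549 cells were cultured 24 h in 10% FBS F12K, washed, and placed in serum-free medium containing compound (DMSO 0.1% final) plus or minus IL-1β, incubated at 37 °C, 5% CO2.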

Q: What does the source list for CC1c2cc(-c3cccc4c(C(=O)N5CCCCC5)cnn34)cnc2C(=O)N1C (centres unmarked) [Example 280, 5,6-dimethyl-3-(3-(piperidine-1-carbonyl)pyrazolo[1,5-a]pyridin-7-yl)-5,6-dihydro-7H-pyrrolo[3,4-b]pyridin-7-one]?
A: IC50 [1]: ≤ 100 nM; fold induction at 1 µM [2]: > 1.5

Q: Which results are given for O=C(c1cnn2c(-c3ccc(-n4cc([N+](=O)[O-])cn4)nc3)cccc12)N1CCCCC1 [Example 355, (7-(6-(4-nitro-1H-pyrazol-1-yl)pyridin-3-yl)pyrazolo[1,5-a]pyridin-3-yl)(piperidin-1-yl)methanone]?
A: IC50 [1]: ≤ 100 nM; fold induction at 1 µM [2]: > 1.5

Q: For O=C(c1cnn2c(NCc3ccc(Cl)cc3)cccc12)N1CCCCC1 [Example 238, [7-[(4-chlorophenyl)methylamino]pyrazolo[1,5-a]pyridin-3-yl]-(1-piperidyl)methanone], which IC50 [1] is on record?
A: Its IC50 is at most 100 nM.

Q: And the fold induction at 1 µM [2]?
A: Its fold induction at 1 µM is over 1.5.

Q: What does the source list for Cc1nc(-c2cc(F)cc(-c3cccc4c(C(=O)N5CCCCC5)cnn34)c2)no1 [Example 322, (7-(3-fluoro-5-(5-methyl-1,2,4-oxadiazol-3-yl)phenyl)pyrazolo[1,5-a]pyridin-3-yl)(piperidin-1-yl)methanone]?
A: IC50 [1]: ≤ 100 nM; fold induction at 1 µM [2]: > 1.5

Q: Which results are given for C[C@@H]1CCCN(C(=O)c2cnn3c(-c4ccc5c(c4)C(=O)NC5)cccc23)C1 [Example 385, (R)-6-(3-(3-methylpiperidine-1-carbonyl)pyrazolo[1,5-a]pyridin-7-yl)isoindolin-1-one]?
A: IC50 [1]: ≤ 100 nM; fold induction at 1 µM [2]: > 1.5

Q: O=C(c1cnn2c(-c3ccc4c(=O)[nH]ncc4c3)cccc12)N1CCCCC1 [Example 233, 6-(3-(piperidine-1-carbonyl)pyrazolo[1,5-a]pyridin-7-yl)phthalazin-1(2H)-one] was tested. Which IC50 [1] did it give?
A: Its IC50 is at most 100 nM.

Q: What about the fold induction at 1 µM [2] of the same compound?
A: Its fold induction at 1 µM is over 1.5.

Q: Which IC50 [1] does the source give for O=C(c1cnn2c(-c3ccc(-c4n[nH]c(=S)o4)nc3)cccc12)N1CCCCC1 [Example 365, 1-piperidyl-[7-[6-(2-thioxo-3H-1,3,4-oxadiazol-5-yl)-3-pyridyl]pyrazolo[1,5-a]pyridin-3-yl]methanone] here?
A: The IC50 was at most 100 nM.

Q: And the fold induction at 1 µM [2]?
A: The fold induction at 1 µM was over 1.5.

Q: O=C(NC1CNC1)c1cncc(-c2cccc3c(C(=O)N4CCCCC4)cnn23)c1 [Example 200, N-(azetidin-3-yl)-5-(3-(piperidine-1-carbonyl)pyrazolo[1,5-a]pyridin-7-yl)nicotinamide] was tested. Which IC50 [1] did it give?
A: Its IC50 is at most 100 nM.

Q: And the fold induction at 1 µM [2]?
A: Its fold induction at 1 µM is over 1.5.

Q: Which results are given for Cc1noc(C)c1-c1ncc(-c2cccc3c(C(=O)N4CCCCC4)cnn23)cn1 [Example 399, [7-[2-(3,5-dimethylisoxazol-4-yl)pyrimidin-5-yl]pyrazolo[1,5-a]pyridin-3-yl]-(1-piperidyl)methanone]?
A: IC50 [1]: ≤ 100 nM; fold induction at 1 µM [2]: > 1.5

Q: Which IC50 [1] does the source give for Cn1nccc1-c1ccc(-c2cccc3c(C(=O)N4CCCCC4)cnn23)cc1 [Example 300, [7-[4-(2-methylpyrazol-3-yl)phenyl]pyrazolo[1,5-a]pyridin-3-yl]-(1-piperidyl)methanone] here?
A: Its IC50 is at most 100 nM.

Q: And the fold induction at 1 µM [2]?
A: Its fold induction at 1 µM is under 1.5.

Q: What does the source list for O=C(Cc1cncnc1)Nc1cncc(-c2cccc3c(C(=O)N4CCCCC4)cnn23)c1 [Example 403, N-(5-(3-(piperidine-1-carbonyl)pyrazolo[1,5-a]pyridin-7-yl)pyridin-3-yl)-2-(pyrimidin-5-yl)acetamide]?
A: IC50 [1]: ≤ 100 nM; fold induction at 1 µM [2]: > 1.5

Q: O=C(O)c1ncc(-c2cccc3c(C(=O)N4CCCCC4)cnn23)cc1F [Example 243, 3-fluoro-5-[3-(piperidine-1-carbonyl)pyrazolo[1,5-a]pyridin-7-yl]pyridine-2-carboxylic acid] was tested. Which IC50 [1] did it give?
A: The IC50 was at most 100 nM.

Q: And the fold induction at 1 µM [2]?
A: The fold induction at 1 µM was over 1.5.

Q: CN(C)CCNC(=O)c1ccc(-c2cccc3c(C(=O)N4CCCCC4)cnn23)cc1 [Example 63, N-(2-(dimethylamino)ethyl)-4-(3-(piperidine-1-carbonyl)pyrazolo[1,5-a]pyridin-7-yl)benzamide] was tested. Which IC50 [1] did it give?
A: The IC50 was at most 100 nM.

Q: And the fold induction at 1 µM [2]?
A: The fold induction at 1 µM was over 1.5.

Q: How did the IC50 [1] turn out when O=C1NCc2ccc(-c3cccc4c(C(=O)N5CCC6(CCC6)CC5)cnn34)cc21 [Example 392, 6-(3-(7-azaspiro[3.5]nonane-7-carbonyl)pyrazolo[1,5-a]pyridin-7-yl)isoindolin-1-one] was run?
A: The IC50 was at most 100 nM.

Q: And the fold induction at 1 µM [2]?
A: Its fold induction at 1 µM is over 1.5.

Q: CN1CC(NC(=O)c2cncc(-c3cccc4c(C(=O)N5CCCCC5)cnn34)c2)C1 [Example 202, N-(1-methylazetidin-3-yl)-5-[3-(piperidine-1-carbonyl)pyrazolo[1,5-a]pyridin-7-yl]pyridine-3-carboxamide] was tested. Which IC50 [1] did it give?
A: Its IC50 is at most 100 nM.

Q: What about the fold induction at 1 µM [2] of the same compound?
A: The fold induction at 1 µM was over 1.5.

Q: O=C(c1cnn2c(Nc3ccc[nH]c3=O)cccc12)N1CCCCC1 [Example 147, 3-((3-(piperidine-1-carbonyl)pyrazolo[1,5-a]pyridin-7-yl)amino)pyridin-2(1H)-one] was tested. Which IC50 [1] did it give?
A: Its IC50 is at most 100 nM.

Q: And the fold induction at 1 µM [2]?
A: Its fold induction at 1 µM is over 1.5.

Q: N#Cc1ccc(-c2cccc3c(C(=O)N4CCCCC4)cnn23)c(F)c1 [Example 285, 3-fluoro-4-[3-(piperidine-1-carbonyl)pyrazolo[1,5-a]pyridin-7-yl]benzonitrile] was tested. Which IC50 [1] did it give?
A: The IC50 was at most 100 nM.

Q: And the fold induction at 1 µM [2]?
A: The fold induction at 1 µM was over 1.5.

Q: O=C(c1cnn2c(-c3ccc(-c4ccsc4)cc3)cccc12)N1CCCCC1 [Example 347, 1-piperidyl-[7-[4-(3-thienyl)phenyl]pyrazolo[1,5-a]pyridin-3-yl]methanone] was tested. Which IC50 [1] did it give?
A: The IC50 was at most 100 nM.

Q: What about the fold induction at 1 µM [2] of the same compound?
A: The fold induction at 1 µM was under 1.5.

Q: O=C(c1cnn2c(-c3cc(F)ncc3Cl)cccc12)N1CCCCC1 [Example 298, (7-(5-chloro-2-fluoropyridin-4-yl)pyrazolo[1,5-a]pyridin-3-yl)(piperidin-1-yl)methanone] was tested. Which IC50 [1] did it give?
A: Its IC50 is at most 100 nM.

Q: And the fold induction at 1 µM [2]?
A: The fold induction at 1 µM was over 1.5.

Q: Which IC50 [1] does the source give for Nc1cccc(-c2cccc3c(C(=O)N4CCCCC4)cnn23)c1 [Example 7, (7-(3-aminophenyl)pyrazolo[1,5-a]pyridin-3-yl)(piperidin-1-yl)methanone] here?
A: Its IC50 is at most 100 nM.

Q: What about the fold induction at 1 µM [2] of the same compound?
A: Its fold induction at 1 µM is over 1.5.

Q: With O=C(c1cnn2c(-c3ccnc(-c4cnn(Cc5ncon5)c4)c3)cccc12)N1CCCCC1 [Example 397, (7-(2-(1-((1,2,4-oxadiazol-3-yl)methyl)-1H-pyrazol-4-yl)pyridin-4-yl)pyrazolo[1,5-a]pyridin-3-yl)(piperidin-1-yl)methanone] as the compound, how does the IC50 [1] read?
A: Its IC50 is at most 100 nM.

Q: And the fold induction at 1 µM [2]?
A: The fold induction at 1 µM was over 1.5.

Q: How did the IC50 [1] turn out when O=C(c1cnn2c(-c3cnc(O)nc3)cccc12)N1CCCCC1 [Example 294, [7-(2-hydroxypyrimidin-5-yl)pyrazolo[1,5-a]pyridin-3-yl]-(1-piperidyl)methanone] was run?
A: Its IC50 is at most 100 nM.

Q: What about the fold induction at 1 µM [2] of the same compound?
A: Its fold induction at 1 µM is under 1.5.
